In paper PMC8854719, “Phase 1A/1B dose-escalation and -expansion study to evaluate the safety, pharmacokinetics, food effects and antitumor activity of pamiparib in advanced solid tumours” (British Journal of Cancer, 2021):

How the values were obtained:
[1] = test system: epithelial ovarian cancer (EOC); experiment: GCIG CA-125 response; assay type: in vivo, human; details: CA-125–evaluable population (n=12)
Procedure: Tumour response was evaluated by RECIST v1.1. For patients with ovarian cancer, tumour response was assessed per RECIST v1.1 and by Gynecologic Cancer Intergroup (GCIG) CA-125 criteria. Tumour response for patients with prostate cancer was assessed by Prostate Cancer Clinical Trials Working Group 2 (PCWG2) criteria. Objective response rate (ORR) was defined as the proportion of patients achieving a confirmed complete response (CR) or partial response (PR) on study treatment. Blood tumour antigens (e.g., carcinoembryonic antigen for colorectal cancer, CA-125 for ovarian cancer and prostate-specific antigen [PSA] for mCRPC) were assessed during screening, every 6 weeks after the first pamiparib dose in the first 12 months, and every 9 weeks thereafter.
The safety population comprised all patients in the dose-escalation and dose-expansion phases who received at least one dose of pamiparib (Supplementary Table S2). Patients in the safety analysis set for whom valid pamiparib PK parameters were estimated and for whom evaluable PD results were available represented the PK population and the PD population, respectively. The efficacy-evaluable population included patients in the safety analysis set who had at least one evaluable postbaseline tumour assessment or those who discontinued due to clinical disease progression or early death before tumour assessment could be performed. […]

[2] = test system: poly(ADP-ribose [PAR]) formation in peripheral blood mononuclear cells (PBMCs); experiment: PAR inhibition in PBMCs (ELISA); assay type: in vivo; details: Homo sapiens, PBMC; sustained at doses of 10 mg BID or higher
Procedure: Pamiparib in plasma was measured using a validated liquid chromatography-tandem–mass spectrometry assay with a lower limit of quantification of 1.0 ng/mL. The collection schedule for blood samples used to assess the PK profile is presented in the Supplemental Appendix. Summary PK parameters, including area under the concentration-time curve from time 0 to 9 h (AUC0-9) or infinity (AUC0-inf), maximal plasma concentration (Cmax) and time to maximal plasma concentration (Tmax), were estimated. The pharmacodynamic (PD) activity of pamiparib was explored through the evaluation of poly(ADP-ribose [PAR]) formation in peripheral blood mononuclear cells (PBMCs) after pamiparib administration. The schedule for blood sample collection (PK and PBMCs) and additional assessment information for PAR levels in PBMCs and pharmacodynamic activity is presented in the Supplemental Appendix. Antitumor activity was assessed by radiographic imaging (computed tomography or magnetic resonance imaging) during screening, within 28 days of first pamiparib dose, every 6 weeks in the first 12 months and every 9 weeks thereafter.
Time-matched blood samples (PK and PBMCs) were obtained on Day 1 (predose and 4 hours postdose) and Day 17 (4 hours postdose) of Cycle 1. The PAR levels in PBMCs were measured by a validated ELISA assay using a commercial PARP pharmacodynamic assay kit (Trevigen, Gaithersburg, MD). […]

[3] = test system: ovarian cancer; details: Phase 1 study in China (NCT03333915), high-grade ovarian cancer refractory or resistant to platinum; cited from earlier work
[4] = test system: P-glycoprotein; design: method as in PMID 32652442; details: cited from earlier work
[5] = test system: BCRP (breast cancer resistance protein); design: method as in PMID 32652442; details: cited from earlier work

C[C@]12CCCN1CC1=NNC(=O)c3cc(F)cc4[nH]c2c1c34 [pamiparib]
GCIG CA-125 response rate [1]: 83.3% | Median time to CA-125 response [1]: 1.38 months | inhibition at 10 mg [2]: ~80% | Clinical benefit rate [3]: 62.5% | ORR [3]: 25.0% | Substrate of P-glycoprotein [4]: not a substrate | Substrate of BCRP [5]: not a substrate
